# In US20100317863A1, “Glucocorticoid Mimetics, Methods of Making Them, Pharmaceutical Compositions and Uses Thereof” (BOEHRINGER INGELHEIM INTERNATIONAL GMBH, priority 2007, published 2010):
# pIC50: −log10 of the molar value.
# Molecular target: T1, human glucocorticoid receptor (GR) complex (Homo sapiens, UniProt P04150)
# T1 construct: made in house; host or cells: insect expression system (baculovirus lysate)
# T1 sequence (P04150 1-777): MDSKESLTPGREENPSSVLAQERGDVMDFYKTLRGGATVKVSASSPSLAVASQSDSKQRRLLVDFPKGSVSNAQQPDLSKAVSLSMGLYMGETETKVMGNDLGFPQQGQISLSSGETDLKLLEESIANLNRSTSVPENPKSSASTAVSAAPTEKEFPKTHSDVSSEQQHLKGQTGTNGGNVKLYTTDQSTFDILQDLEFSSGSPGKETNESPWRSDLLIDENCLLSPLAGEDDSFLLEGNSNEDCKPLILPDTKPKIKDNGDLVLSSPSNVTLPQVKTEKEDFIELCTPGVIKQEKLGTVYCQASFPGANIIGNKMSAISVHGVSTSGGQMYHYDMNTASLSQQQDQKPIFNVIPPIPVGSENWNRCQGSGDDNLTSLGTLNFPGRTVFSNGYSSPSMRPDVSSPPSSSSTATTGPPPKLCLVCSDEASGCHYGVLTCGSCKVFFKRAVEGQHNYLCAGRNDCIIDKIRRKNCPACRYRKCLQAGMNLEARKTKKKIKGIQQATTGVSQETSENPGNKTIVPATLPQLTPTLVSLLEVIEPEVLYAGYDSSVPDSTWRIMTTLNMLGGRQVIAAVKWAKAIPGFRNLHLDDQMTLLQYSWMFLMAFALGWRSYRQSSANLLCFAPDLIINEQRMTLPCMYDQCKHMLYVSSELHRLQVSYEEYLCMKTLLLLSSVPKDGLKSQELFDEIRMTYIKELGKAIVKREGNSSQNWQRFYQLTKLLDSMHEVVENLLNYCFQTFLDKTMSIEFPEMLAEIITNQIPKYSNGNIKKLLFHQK
# Test: Glucocorticoid Receptor Competitive Binding Assay (fluorescence polarization)
# Settings: competition with TAMRA-labeled dexamethasone; potent activity
# Protocol: Compounds of the invention were evaluated for binding to the steroid receptor by a fluorescence polarization competitive binding assay. Detailed descriptions for preparation of recombinant glucocorticoid receptor (GR) complex used in the assay is described in U.S. Patent Application Publication No. US 2003/0017503, filed May 20, 2002, and incorporated herein by reference in its entirety. Preparation of the tetramethylrhodamine (TAMRA)-labeled dexamethasone probe was accomplished using a standard literature procedure (M. Pons et al., J. Steroid Biochem., 1985, 22, pp. 267-273).
# This assay uses fluorescence polarization (FP) to quantitate the ability of test compounds to compete with tetramethylrhodamine (TAMRA)-labeled dexamethasone for binding to a human glucocorticoid receptor (GR) complex prepared from an insect expression system. The assay buffer was: 10 mM TES, 50 mM KCl, 20 mM Na2MoO4.2H2O, 1.5 mM EDTA, 0.04% w/v CHAPS, 10% v/v glycerol, 1 mM dithiothreitol, pH 7.4. Test compounds were dissolved to 1 mM in neat DMSO and then further diluted to 10× assay concentration in assay buffer supplemented with 10% v/v DMSO. Test compounds were serially diluted at 10× assay concentrations in 10% DMSO-containing buffer in 96-well polypropylene plates. Binding reaction mixtures were prepared in 96-well black Dynex microtiter plates by sequential addition of the following assay components to each well: 15 μL of 10× test compound solution, 85 μL of GR-containing baculovirus lysate diluted 1:170 in assay buffer, and 50 μL of 15 nM TAMRA-labeled dexamethasone. Positive controls were reaction mixtures containing no test compound; negative controls (blanks) were reaction mixtures containing 0.7 μM to 2 μM dexamethasone. The binding reactions were incubated for 1 hour at room temperature and then read for fluorescence polarization in the LJL Analyst set to 550 nm excitation and 580 nm emission, with the Rhodamine 561 dichroic mirror installed. IC50 values were determined by iterative non-linear curve fitting of the FP signal data to a 4-parameter logistic equation.
row,pIC50,SMILES
1,≥ 7.00,"Cc1cc(C)c(S(=O)(=O)N(C)[C@@H](C)Cn2cc(C#N)c3cccc(F)c32)c(N)c1 [2-Amino-N—[(S)-2-(3-cyano-7-fluoroindol-1-yl)-1-methylethyl]-4,6,N-trimethylbenzenesulfonamide]"
2,≥ 7.00,"Cc1cc(C)c(S(=O)(=O)N[C@@H](C)Cn2cc(C#N)c3ccccc32)c(N)c1 [2-Amino-N—[(S)-2-(3-cyanoindol-1-yl)-1-methylethyl]-4,6-dimethylbenzenesulfonamide]"
3,≥ 7.00,"Cc1cc(C)c(S(=O)(=O)N[C@@H](C)Cn2cc(CC#N)c3cc(F)ccc32)c(N)c1 [2-Amino-N—[(S)-2-(3-cyanomethyl-5-fluoroindol-1-yl)-1-methylethyl]-4,6-dimethylbenzenesulfonamide]"
4,≥ 7.00,"Cc1cc(C)c(S(=O)(=O)N[C@@H](C)Cn2cc(CC#N)c3cccc(F)c32)c(N)c1 [2-Amino-N—[(S)-2-(3-cyanomethyl-7-fluoroindol-1-yl)-1-methylethyl]-4,6-dimethylbenzenesulfonamide]"
5,≥ 7.00,"Cc1cc(C)c(S(=O)(=O)N[C@@H](C)Cn2cc(CC#N)c3ccccc32)c(N)c1 [2-Amino-N—[(S)-2-(3-cyanomethylindol-1-yl)-1-methylethyl]-4,6-dimethylbenzenesulfonamide]"
6,≥ 7.00,"Cc1cc(C)c(S(=O)(=O)N[C@@H](C)Cn2cc(C)c3cccc(F)c32)c(N)c1 [2-Amino-N—[(S)-2-(7-fluoro-3-methylindol-1-yl)-1-methylethyl]-4,6-dimethylbenzenesulfonamide]"
7,≥ 7.00,"CC[C@@H](Cn1cc(C)c2ccccc21)NS(=O)(=O)c1c(C)cc(C)cc1Br [2-Bromo-4,6-dimethyl-N—[(S)-1-(3-methylindol-1-ylmethyl)propyl]benzenesulfonamide]"
8,≥ 7.00,"CC[C@@H](Cn1cc(C#N)c2cc(F)ccc21)NS(=O)(=O)c1c(Cl)cc(-c2ccc(N(C)C)cc2)cc1Cl [3,5-Dichloro-4′-dimethylaminobiphenyl-4-sulfonic acid [(S)-1-(3-cyano-5-fluoroindol-1-ylmethyl)propyl]amide]"
9,≥ 7.00,"CC[C@@H](Cn1cc(C#N)c2cc(F)ccc21)NS(=O)(=O)c1c(Cl)cc(Br)cc1Cl [4-Bromo-2,6-dichloro-N—[(S)-1-(3-cyano-5-fluoroindol-1-ylmethyl)propyl]benzenesulfonamide]"
10,≥ 7.00,"Cc1cc(C)c(S(=O)(=O)NC(Cn2ccc3ccccc32)C(C)(C)C)c(C)c1 (stereo not drawn) [N-(1-Indol-1-ylmethyl-2,2-dimethylpropyl)-2,4,6-trimethylbenzenesulfonamide]"
11,≥ 7.00,"Cc1cc(C)c(S(=O)(=O)NC(Cn2ccc3ccccc32)C(C)C)c(C)c1 (stereo not drawn) [N-(1-Indol-1-ylmethyl-2-methylpropyl)-2,4,6-trimethylbenzenesulfonamide]"
12,≥ 7.00,"Cc1cc(C)c(S(=O)(=O)NC(CN2CCCc3ccccc32)C(C)C)c(C)c1 (stereo not drawn) [N-[1-(3,4-Dihydro-2H-quinolin-1-ylmethyl)-2-methylpropyl]-2,4,6-trimethylbenzenesulfonamide]"
13,≥ 7.00,"CC[C@@H](Cn1cc(Br)c2cccnc21)NS(=O)(=O)c1c(C)cc(C)cc1C [N—[(S)-1-(3-Bromopyrrolo[2,3-b]pyridin-1-ylmethyl)propyl]-2,4,6-trimethylbenzenesulfonamide]"
14,≥ 7.00,"CC[C@@H](Cn1c(C)c(C#N)c2ccccc21)NS(=O)(=O)c1c(C)cc(C)cc1C [N—[(S)-1-(3-Cyano-2-methylindol-1-ylmethyl)propyl]-2,4,6-trimethylbenzenesulfonamide]"
15,≥ 7.00,"CC[C@@H](Cn1cc(C#N)c2cc(F)ccc21)NS(=O)(=O)c1c(C)cc(C)cc1C [N—[(S)-1-(3-Cyano-5-fluoroindol-1-ylmethyl)propyl]-2,4,6-trimethylbenzenesulfonamide]"
16,≥ 7.00,"CC[C@@H](Cn1cc(C#N)c2ccccc21)NS(=O)(=O)c1c(C)cc(C)cc1C [N—[(S)-1-(3-Cyanoindol-1-ylmethyl)propyl]-2,4,6-trimethylbenzenesulfonamide]"
17,≥ 7.00,"CC[C@@H](Cn1cc(CC#N)c2ccccc21)NS(=O)(=O)c1c(C)cc(C)cc1C [N—[(S)-1-(3-Cyanomethylindol-1-ylmethyl)propyl]-2,4,6-trimethylbenzenesulfonamide]"
18,≥ 7.00,"CC[C@@H](Cn1c(C)cc2cc(Cl)ccc21)NS(=O)(=O)c1c(C)cc(C)cc1C [N—[(S)-1-(5-Chloro-2-methylindol-1-ylmethyl)propyl]-2,4,6-trimethylbenzenesulfonamide]"
19,≥ 7.00,"CC[C@@H](Cn1cc(C=O)c2cc(F)ccc21)NS(=O)(=O)c1c(C)cc(C)cc1C [N—[(S)-1-(5-Fluoro-3-formylindol-1-ylmethyl)propyl]-2,4,6-trimethylbenzenesulfonamide]"
20,≥ 7.00,"CC[C@@H](CN1CCCc2cc(Br)ccc21)NS(=O)(=O)c1c(C)cc(C)cc1C [N—[(S)-1-(6-Bromo-3,4-dihydro-2H-quinolin-1-ylmethyl)propyl]-2,4,6-trimethylbenzenesulfonamide]"
21,≥ 7.00,"CC[C@@H](CN1CCCc2cc(C#N)ccc21)NS(=O)(=O)c1c(C)cc(C)cc1C [N—[(S)-1-(6-Cyano-3,4-dihydro-2H-quinolin-1-ylmethyl)propyl]-2,4,6-trimethylbenzenesulfonamide]"
